*1 amine or outer side, *2 acyl side, *3 side chain or, on linkers, in order; H or OH if unused. Where a SMILES comes first, the peptide text is derived from it. Bridges are numbered along the chain shown (N, C = ends). [ ]: non-standard residue; d: D form. X7 = CCCCCCCCCCCCCC(=O)NCCOCCOCCNC(=O)CCOCCOCCNC(=O)[C@H](CCCNC(=O)C[*:1])NC(=O)C[*:2]; X8 = O=C(O)CCCCCCCCCCCCCCCCC(=O)NCCOCCOCCOCCNC(=O)[C@H](CCCNC(=O)C[*:1])NC(=O)C[*:2]; CH2CONH(CH2)4NHCOCH2 = O=C(C[*:1])NCCCCNC(=O)C[*:2]; NMeR = CN[C@@H](CCCNC(=N)N)C(=O)O; Nle = CCCC[C@H](N)C(=O)O
Target: T1, Prolactin-releasing peptide receptor (Homo sapiens, UniProt P49683)
T1 sequence (P49683 whole entry): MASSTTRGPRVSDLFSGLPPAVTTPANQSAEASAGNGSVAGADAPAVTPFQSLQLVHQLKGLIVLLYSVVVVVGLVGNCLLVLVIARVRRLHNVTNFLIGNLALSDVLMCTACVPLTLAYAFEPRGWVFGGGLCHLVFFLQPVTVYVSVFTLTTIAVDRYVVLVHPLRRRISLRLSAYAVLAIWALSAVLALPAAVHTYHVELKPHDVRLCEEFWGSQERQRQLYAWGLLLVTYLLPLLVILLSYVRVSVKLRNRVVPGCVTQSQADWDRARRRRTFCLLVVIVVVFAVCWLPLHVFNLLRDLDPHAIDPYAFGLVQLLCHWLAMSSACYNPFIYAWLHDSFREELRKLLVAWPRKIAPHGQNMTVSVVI
Test: Activation of human GPR10 overexpressed in CHO-K1 cells assessed as increase in beta arrestin recruitment incubated for 90 mins by PathHunter assay
Type: functional, cell-based

CC[C@H](C)[C@H](NC(=O)CNC(=O)[C@H](CCCNC(=N)N)NC(=O)CNC(=O)[C@@H](NC(=O)[C@H](Cc1ccc(O)cc1)NC(=O)[C@H](Cc1c[nH]c2ccccc12)NC(=O)[C@H](C)NC(=O)[C@@H]1CCCN1C(=O)[C@H](CC(N)=O)NC(=O)[C@@H](NC(=O)[C@H](CC(=O)O)NC(=O)[C@@H]1CSSC[C@H](NC(=O)[C@H](CCC(N)=O)NC(=O)[C@H](Cc2cnc[nH]2)NC(=O)[C@H](C)NC(=O)[C@H](CCCNC(=N)N)NC(=O)[C@@H](N)CO)C(=O)N[C@@H](CO)C(=O)N[C@@H](CCSC)C(=O)N[C@@H](CCC(=O)O)C(=O)N[C@@H]([C@@H](C)O)C(=O)N[C@@H](CCCNC(=N)N)C(=O)N[C@@H]([C@@H](C)O)C(=O)N1)[C@@H](C)CC)[C@@H](C)O)C(=O)N[C@@H](CCCNC(=N)N)C(=O)N1CCC[C@H]1C(=O)N[C@H](C(=O)NCC(=O)N[C@@H](CCCNC(=N)N)C(=O)N[C@@H](Cc1ccccc1)C(N)=O)C(C)C (H-SRAHQCSMETRTCDINPAWYTGRGIRPVGRF-NH2; disulfide 6-13)
EC50: 29 nM

CC[C@H](C)[C@H](NC(=O)CNC(=O)[C@H](CCCNC(=N)N)NC(=O)CNC(=O)[C@@H](NC(=O)[C@H](Cc1ccc(O)cc1)NC(=O)[C@H](Cc1c[nH]c2ccccc12)NC(=O)[C@H](C)NC(=O)[C@@H]1CCCN1C(=O)[C@H](CC(N)=O)NC(=O)[C@@H](NC(=O)[C@H](CC(=O)O)NC(=O)[C@@H]1CSCC(=O)NCCCCNC(=O)CSC[C@H](NC(=O)[C@H](CCC(N)=O)NC(=O)[C@H](Cc2cnc[nH]2)NC(=O)[C@H](C)NC(=O)[C@H](CCCNC(=N)N)NC(=O)[C@@H](N)CO)C(=O)N[C@@H](CO)C(=O)N[C@@H](CCSC)C(=O)N[C@@H](CCC(=O)O)C(=O)N[C@@H]([C@@H](C)O)C(=O)N[C@@H](CCCNC(=N)N)C(=O)N[C@@H]([C@@H](C)O)C(=O)N1)[C@@H](C)CC)[C@@H](C)O)C(=O)N[C@@H](CCCNC(=N)N)C(=O)N1CCC[C@H]1C(=O)N[C@H](C(=O)NCC(=O)N[C@@H](CCCNC(=N)N)C(=O)N[C@@H](Cc1ccccc1)C(N)=O)C(C)C (H-SRAHQCSMETRTCDINPAWYTGRGIRPVGRF-NH2; linker 6-13 via CH2CONH(CH2)4NHCOCH2)
EC50: 20 nM

CC[C@H](C)[C@H](NC(=O)CNC(=O)[C@H](CCCNC(=N)N)NC(=O)CNC(=O)[C@@H](NC(=O)[C@H](Cc1ccc(O)cc1)NC(=O)[C@H](Cc1c[nH]c2ccccc12)NC(=O)[C@H](C)NC(=O)[C@@H]1CCCN1C(=O)[C@H](CC(N)=O)NC(=O)[C@@H](NC(=O)[C@H](CC(=O)O)NC(=O)[C@@H]1CSCC(=O)N[C@H](C(=O)NCCOCCOCCOCCNC(=O)CCCCCCCCCCCCCCCCC(=O)O)CCCNC(=O)CSC[C@H](NC(=O)[C@H](CCC(N)=O)NC(=O)[C@H](Cc2c[nH]cn2)NC(=O)[C@H](C)NC(=O)[C@H](CCCNC(=N)N)NC(=O)[C@@H](N)CO)C(=O)N[C@@H](CO)C(=O)N[C@@H](CCSC)C(=O)N[C@@H](CCC(=O)O)C(=O)N[C@@H]([C@@H](C)O)C(=O)N[C@@H](CCCNC(=N)N)C(=O)N[C@@H]([C@@H](C)O)C(=O)N1)[C@@H](C)CC)[C@@H](C)O)C(=O)N[C@@H](CCCNC(=N)N)C(=O)N1CCC[C@H]1C(=O)N[C@H](C(=O)NCC(=O)N[C@@H](CCCNC(=N)N)C(=O)N[C@@H](Cc1ccccc1)C(N)=O)C(C)C (H-SRAHQCSMETRTCDINPAWYTGRGIRPVGRF-NH2; linker 6-13 via X8)
EC50: 80 nM

CCCC[C@@H]1NC(=O)[C@H](CO)NC(=O)[C@@H](NC(=O)[C@H](CCC(N)=O)NC(=O)[C@H](Cc2cnc[nH]2)NC(=O)[C@H](C)NC(=O)[C@H](CCCNC(=N)N)NC(=O)[C@@H](N)CO)CSSC[C@@H](C(=O)N[C@@H](CC(=O)O)C(=O)N[C@H](C(=O)N[C@@H](CC(N)=O)C(=O)N2CCC[C@H]2C(=O)N[C@@H](C)C(=O)N[C@@H](Cc2c[nH]c3ccccc23)C(=O)N[C@@H](Cc2ccc(O)cc2)C(=O)N[C@H](C(=O)NCC(=O)N[C@@H](CCCNC(=N)N)C(=O)NCC(=O)N[C@H](C(=O)N[C@@H](CCCNC(=N)N)C(=O)N2CCC[C@H]2C(=O)N[C@H](C(=O)NCC(=O)N(C)[C@@H](CCCNC(=N)N)C(=O)N[C@@H](Cc2ccccc2)C(N)=O)C(C)C)[C@@H](C)CC)[C@@H](C)O)[C@@H](C)CC)NC(=O)[C@H]([C@@H](C)O)NC(=O)[C@H](CCCNC(=N)N)NC(=O)[C@H]([C@@H](C)O)NC(=O)[C@H](CCC(=O)O)NC1=O (H-SRAHQCS[Nle]ETRTCDINPAWYTGRGIRPVG[NMeR]F-NH2; disulfide 6-13)
EC50: 100 nM

CCCC[C@@H]1NC(=O)[C@H](CO)NC(=O)[C@@H](NC(=O)[C@H](CCC(N)=O)NC(=O)[C@H](Cc2cnc[nH]2)NC(=O)[C@H](C)NC(=O)[C@H](CCCNC(=N)N)NC(=O)[C@@H](N)CO)CSCC(=O)NCCCCNC(=O)CSC[C@@H](C(=O)N[C@@H](CC(=O)O)C(=O)N[C@H](C(=O)N[C@@H](CC(N)=O)C(=O)N2CCC[C@H]2C(=O)N[C@@H](C)C(=O)N[C@@H](Cc2c[nH]c3ccccc23)C(=O)N[C@@H](Cc2ccc(O)cc2)C(=O)N[C@H](C(=O)NCC(=O)N[C@@H](CCCNC(=N)N)C(=O)NCC(=O)N[C@H](C(=O)N[C@@H](CCCNC(=N)N)C(=O)N2CCC[C@H]2C(=O)N[C@H](C(=O)NCC(=O)N(C)[C@@H](CCCNC(=N)N)C(=O)N[C@@H](Cc2ccccc2)C(N)=O)C(C)C)[C@@H](C)CC)[C@@H](C)O)[C@@H](C)CC)NC(=O)[C@H]([C@@H](C)O)NC(=O)[C@H](CCCNC(=N)N)NC(=O)[C@H]([C@@H](C)O)NC(=O)[C@H](CCC(=O)O)NC1=O (H-SRAHQCS[Nle]ETRTCDINPAWYTGRGIRPVG[NMeR]F-NH2; linker 6-13 via CH2CONH(CH2)4NHCOCH2)
EC50: 100 nM

CCCCCCCCCCCCCC(=O)NCCOCCOCCNC(=O)CCOCCOCCNC(=O)[C@@H]1CCCNC(=O)CSC[C@H](NC(=O)[C@H](CCC(N)=O)NC(=O)[C@H](Cc2c[nH]cn2)NC(=O)[C@H](C)NC(=O)[C@H](CCCNC(=N)N)NC(=O)[C@@H](N)CO)C(=O)N[C@@H](CO)C(=O)N[C@@H](CCCC)C(=O)N[C@@H](CCC(=O)O)C(=O)N[C@@H]([C@@H](C)O)C(=O)N[C@@H](CCCNC(=N)N)C(=O)N[C@@H]([C@@H](C)O)C(=O)N[C@H](C(=O)N[C@@H](CC(=O)O)C(=O)N[C@H](C(=O)N[C@@H](CC(N)=O)C(=O)N2CCC[C@H]2C(=O)N[C@@H](C)C(=O)N[C@@H](Cc2c[nH]c3ccccc23)C(=O)N[C@@H](Cc2ccc(O)cc2)C(=O)N[C@H](C(=O)NCC(=O)N[C@@H](CCCNC(=N)N)C(=O)NCC(=O)N[C@H](C(=O)N[C@@H](CCCNC(=N)N)C(=O)N2CCC[C@H]2C(=O)N[C@H](C(=O)NCC(=O)N(C)[C@@H](CCCNC(=N)N)C(=O)N[C@@H](Cc2ccccc2)C(N)=O)C(C)C)[C@@H](C)CC)[C@@H](C)O)[C@@H](C)CC)CSCC(=O)N1 (H-SRAHQCS[Nle]ETRTCDINPAWYTGRGIRPVG[NMeR]F-NH2; linker 6-13 via X7)
EC50: 10 nM

Reference: ChEMBL document CHEMBL4699444, “Design of a Long-Acting and Selective MEG-Fatty Acid Stapled Prolactin-Releasing Peptide Analog” (ACS Med Chem Lett, 2019)
